Where only a bound is given, the exact number is not on record here.

Experimental findings from ChEMBL document CHEMBL4725273, “Structure-activity relationship study of cytotoxic neolignan derivatives using multivariate analysis and computation-aided drug design” (Bioorg Med Chem Lett, 2020) are described below.

For one assay, the system named is B16-F10. The experiment in a line: Cytotoxicity against mouse B16-F10 cells. Format: functional, cell-based.
Assay [1] in a line: Cytotoxicity against human T75 cells. In kind it is cell-based.
In the next assay the test system is A2058. The experiment in a line: Cytotoxicity against human A2058 cells. Format: functional, cell-based.
The nature of assay [2]: Selectivity index, ratio for IC50 for human T75 cells to IC50 for human A2058 cells.

In general, IC50 refers to the concentration that inhibits the measured activity by half. Turning to `CCCc1ccc(Oc2cc(CCC)cc(OC)c2OC)c(OC)c1`, the IC50 (in the assay with B16-F10; in assay [1]; in the assay on A2058) was > 100 µM in each case.

As to `C=CCc1ccc(Oc2cc(CC=C)cc(OC)c2Oc2ccccc2)c(OC)c1`, the IC50 (in the assay with B16-F10; in assay [1]; with A2058) was > 100 µM each time.

For `C=CCc1ccc(Oc2cc(C(O)C=C)cc(OC)c2OC)c(OC)c1` (stereo not given), the IC50 was 90.3 µM in the assay on B16-F10, > 100 µM in assay [1] and > 100 µM in the assay on A2058.

Consider `CCCc1ccc(Oc2cc(CCC)cc(OC)c2Oc2ccccc2)c(OC)c1`, for which the half-maximal inhibitory concentration (IC50) (with B16-F10; in assay [1]; in the assay on A2058) was > 100 µM throughout.

On to `COc1cc(CC(C)=O)ccc1Oc1cc(CC(C)=O)cc(OC)c1OCC(C)=O`, for which the IC50 (with B16-F10; in assay [1]; with A2058) was > 100 µM throughout.

As for `COc1cc(CC(C)O)ccc1Oc1cc(CC(C)O)cc(OC)c1OCC(C)O` (stereo not given), the half-maximal inhibitory concentration (IC50) (with B16-F10; in assay [1]; in the assay on A2058) was > 100 µM in each case.

For the molecule `C=CCc1ccc(Oc2cc(C(O)C=C)cc(OC)c2O)c(OC)c1` (stereo not given), the half-inhibitory concentration (IC50) (in the assay on B16-F10; in assay [1]; in the assay with A2058) was > 100 µM in each case.

With `CCC(O)Oc1c(OC)cc(C(O)CC)cc1Oc1ccc(C(O)CC)cc1OC` (stereo not given), the half-inhibitory concentration (IC50) (in the assay with B16-F10; in assay [1]; in the assay with A2058) was > 100 µM throughout.

As for `COc1cc(C=O)ccc1Oc1cc(C=O)cc(OC)c1OC=O`, the values for the half-maximal inhibitory concentration (IC50) (in the assay on B16-F10; in assay [1]; with A2058) were 80.2 µM, > 100 µM and 61.4 µM, respectively. In addition, in assay [2], the “Ratio IC50” value is >1.6.

As for `C=CCc1ccc(Oc2cc(C(=O)C=C)cc(OC)c2O)c(OC)c1`, the IC50 is 82.2 µM in the assay with B16-F10, > 100 µM in assay [1] and 85.3 µM with A2058. For the same molecule, the “Ratio IC50” value in assay [2] was >1.2.

As to `COc1cc(CCCO)ccc1Oc1cc(CCCO)cc(OC)c1OCCCO`, the 50% inhibitory concentration (IC50) (in the assay on B16-F10; in assay [1]; with A2058) was > 100 µM throughout.

`CCCOc1c(OC)cc(CCC)cc1Oc1ccc(CCC)cc1OC`: the 50% inhibitory concentration (IC50) is 79 µM in the assay on B16-F10, > 100 µM in assay [1] and 52.2 µM in the assay with A2058. In addition, the “Ratio IC50” value in assay [2] was >1.9.

For `CCCS(=O)(=O)Nc1ccc(F)c(C(=O)c2c[nH]c3ncc(-c4ccc(Cl)cc4)cc23)c1F` [VEMURAFENIB], the IC50 in assay [1] was > 100 µM; with A2058 it was 8.7 µM. In addition, in assay [2], the “Ratio IC50” value is listed as >11.5.

For the molecule `C=CCc1ccc(Oc2cc(C(=O)C=C)cc(OC)c2OC)c(OC)c1`, the IC50 (with B16-F10; in assay [1]; in the assay with A2058) was > 100 µM throughout.
